The subject of data set [1] is S. pneumoniae AUCC479, macrolide & penicillin sensitive. Put plainly: Minimum inhibitory concentration (MIC), broth microdilution, AUCC479. In kind it is cell-based, Streptococcus pneumoniae. Here is the method:
(§1) Protocols for Determining Minimum Inhibitory Concentration (MIC) of Test Compounds Against Streptococcus Pneumoniae Strains
(§2) The test strains are revived from frozen stock on blood agar plates and incubated at 35±2° C. for 18-20 hours in 5% CO2. Colonies are directly suspended from an overnight grown agar culture in CAMHB/saline and optical density adjusted to 0.5 McFarland turbidity standard (1-2×10^8 cfu/mL). Adjusted cultures are further diluted 1:100 using CAMHB such that after inoculation each well finally contains ˜5×10^5 cfu/mL. For broth dilution testing of Streptococcus species, CAMHB is supplemented with 2.5-5% v/v LHB. Colony counts of inoculum suspension is estimated by ten-fold serial dilutions and plating each dilution on agar plate. After incubation, the plates are observed for growth and microbial counts determined.
(§3) Compounds are weighed and dissolved in water/DMSO/other solvent to yield 1 mg/mL stock solution. Serial two-fold dilutions of the test compounds and reference antibiotics are prepared. 50 μL of the diluted drug solutions are dispensed in wells of microtiter trays (96 well).
(§4) To each of the wells of the microtiter tray, 50 μL of the diluted organism are inoculated to obtain a final inoculum density of ˜5×10^5 cfu/mL. Broth control, compound control and organism control wells are set up.
(§5) MIC testing are done in duplicates
(§6) MIC is defined as the lowest concentration of an antimicrobial agent that prevents visible growth of a microorganism in broth dilution susceptibility test.
(§7) After incubation period, growth of organism in the wells are detected by unaided eye facilitated by a viewing device. The amount of growth in the drug-containing wells are compared with the amount of growth in the organism-control wells.
(In broth dilution the organism is exposed to a series of concentrations in liquid medium.)

Data set [2] deals with S. pneumoniae AUCC488, macrolide & penicillin resistant. Put plainly: Minimum inhibitory concentration (MIC), broth microdilution, AUCC488. In kind it is cell-based, Streptococcus pneumoniae. Here is the method: as §1, §2, §3, §4, §5, §6, §7
The test system of data set [3] is S. pneumoniae AUCC483, macrolide resistant & penicillin sensitive. Put plainly: Minimum inhibitory concentration (MIC), broth microdilution, AUCC483. The class given is cell-based, Streptococcus pneumoniae. The method, then: as §1, §2, §3, §4, §5, §6, §7
For data set [4], the system named is S. pneumoniae AUCC489, macrolide & penicillin resistant. Put plainly: Minimum inhibitory concentration (MIC), broth microdilution, AUCC489. The class given is cell-based, Streptococcus pneumoniae. Here is the method:
as §1, §2, §3, §4, §5, §6, §7

Data set [5] relates to S. pneumoniae ATCC 49619 (CLSI QC strain). The data set is described as follows: Minimum inhibitory concentration (MIC), broth microdilution, QC strain. In kind it is cell-based, Streptococcus pneumoniae. The note with it: MIC in duplicates. The method, then: as §1, §2, §3, §4, §5, §6, §7
Data set [6] addresses CYP3A4 (Homo sapiens, UniProt P08684). The data set is described as follows: Cytochrome P4503A4 inhibition assay, human liver microsomes, LC-MS/MS probe substrate method. The note with it: for IC50: human liver microsomes 0.1 mg/mL, 10 min; for CYP3A4 inhibition in comparison with solithromycin and ketoconazole: summary of Table 1. Background: Microsomes from liver hold many membrane-bound enzymes, among them those of drug oxidation.
Method: Cytochrome P4503A4 Inhibition Assay for Determining IC50
The potential of the compound to inhibit CYP 3A4 was tested by the LC-MS/MS based probe substrate method using human liver microsomes. Midazolam or testosterone, which are metabolized to hydroxymidazolam or hydroxytestosterone by CYP 3A4, were the probe substrates used. […] NADPH was added as the cofactor. […] After incubation for ten minutes, the amount of 1-hydroxymidazolam or 6β-hydroxyltestosterone formed was determined by LC-MS/MS method as a measure of enzyme activity. Percent inhibition of enzyme activity was calculated based on the amount of metabolites (1-hydroxymidazolam or 6β-hydroxyltestosterone) formed for each sample relative to the basal control and plotted in a curve versus the compound concentration to obtain the IC50.

The mark [7] stands for this setting: read-out: IC50 CYP3A4 (midazolam), 5 μM midazolam.
The mark [8] stands for this setting: read-out: IC50 CYP3A4 (testosterone), 50 μM testosterone.

Values after ≈ are worked out from the molar mass of the structure shown. Like-named read-outs stand apart in the source and are kept apart here. A value given as a limit tells only on which side of the number the result lay.

As a reminder, the IC50 is the concentration that gives 50% inhibition. One may read the MIC as the lowest concentration that inhibits growth of the organism.

CYP3A4, sequence (P08684 whole entry): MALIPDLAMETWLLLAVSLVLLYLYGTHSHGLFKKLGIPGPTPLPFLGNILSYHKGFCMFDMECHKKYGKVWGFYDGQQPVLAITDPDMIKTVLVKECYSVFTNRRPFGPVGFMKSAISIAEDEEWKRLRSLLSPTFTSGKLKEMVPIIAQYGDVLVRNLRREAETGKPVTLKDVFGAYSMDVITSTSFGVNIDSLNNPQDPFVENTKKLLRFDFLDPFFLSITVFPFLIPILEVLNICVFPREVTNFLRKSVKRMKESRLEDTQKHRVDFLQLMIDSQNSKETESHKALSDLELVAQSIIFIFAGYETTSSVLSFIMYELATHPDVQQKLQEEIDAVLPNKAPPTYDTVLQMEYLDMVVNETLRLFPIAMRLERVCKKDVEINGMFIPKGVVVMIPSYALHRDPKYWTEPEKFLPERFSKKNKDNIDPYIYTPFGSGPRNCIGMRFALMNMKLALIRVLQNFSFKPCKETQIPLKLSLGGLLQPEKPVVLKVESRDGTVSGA

With `CC[C@H]1OC(=O)[C@H](C)C(=O)[C@H](C)[C@@H](O[C@@H]2O[C@H](C)C[C@H](N(C)C)[C@H]2O)[C@](C)(OC/C=C/c2cnc3ccccc3c2)C[C@@H](C)C(=O)[C@H](C)[C@H]2N(CCOC)C(=O)O[C@]12C` [Compound 13E, (3aS,4R,7R,9R,10R,11R,13R,15R,15aR)-10-{[(2S,3R,4S,6R)-4-(dimethylamino)-3-hydroxy-6-methyloxan-2-yl]oxy}-4-ethyl-1-(2-methoxyethyl)-3a,7,9,11,13,15-hexamethyl-11-{[(2E)-3-(quinolin-3-yl)prop-2-en-1-yl]oxy}-tetradecahydro-1H-oxacyclotetradeca[4,3-d][1,3]oxazole-2,6,8,14-tetrone], the “MIC Strep. Pneumoniae AUCC 479 penS, macS” value in data set [1] lay in the range of 0.03 to 0.06 µg/mL. In data set [2], the “MIC Strep. Pneumoniae AUCC 488 penR, macR M or iMLS” value (“MIC Strep. Pneumoniae AUCC 488 penR” for short) lay within 0.25 to 0.5 µg/mL. Further, the “MIC Strep. Pneumoniae AUCC 483 penS, macR cMLS” value in data set [3] was greater than 4 µg/mL. Besides, the “MIC Strep. Pneumoniae AUCC 489 penR, macR cMLS” value in data set [4] is greater than 4 µg/mL. Besides, the “MIC Strep. Pneumoniae ATCC49619 QC strain” value in data set [5] fell in the range of 0.06 to 0.12 µg/mL.
Regarding `CC[C@H]1OC(=O)[C@H](C)C(=O)[C@H](C)[C@@H](O[C@@H]2O[C@H](C)C[C@H](N(C)C)[C@H]2O)[C@](C)(OC/C=C/c2cnc3ccccc3c2)C[C@@H](C)C(=O)[C@H](C)[C@H]2N(CC#N)C(=O)O[C@]12C` [Compound 13H, 2-[(3aS,4R,7R,9R,10R,11R,13R,15R,15aR)-10-{[(2S,3R,4S,6R)-4-(dimethylamino)-3-hydroxy-6-methyloxan-2-yl]oxy}-4-ethyl-3a,7,9,11,13,15-hexamethyl-2,6,8,14-tetraoxo-11-{[(2E)-3-(quinolin-3-yl)prop-2-en-1-yl]oxy}-tetradecahydro-1H-oxacyclotetradeca[4,3-d][1,3]oxazol-1-yl]acetonitrile], in data set [1], the “MIC Strep. Pneumoniae AUCC 479 penS, macS” value is 0.008 to 0.015 µg/mL. Moreover, in data set [2], the “MIC Strep. Pneumoniae AUCC 488 penR” value lay within 0.25 to 1 µg/mL. Also, in data set [3], the “MIC Strep. Pneumoniae AUCC 483 penS, macR cMLS” value is 2 to 4 µg/mL. In data set [4], the “MIC Strep. Pneumoniae AUCC 489 penR, macR cMLS” value was in the range of 0.25 to 1 µg/mL. Further, the IC50 in data set [6] (setting [7]) worked out at 1.9 µM. In data set [6], the “CYP3A4 inhibition in comparison with solithromycin and ketoconazole” value (“CYP3A4 inhibition in comparison” below) is “lower IC50 inhibition of CYP3A4 inhibition”. Further, in data set [5], the “MIC Strep. Pneumoniae ATCC49619 QC strain” value was in the range of 0.03 to 0.06 µg/mL.
For `CC[C@H]1OC(=O)[C@H](C)C(=O)[C@H](C)[C@@H](O[C@@H]2O[C@H](C)C[C@H](N(C)C)[C@H]2O)[C@](C)(OC/C=C/c2cnc3ccccc3c2)C[C@@H](C)C(=O)[C@H](C)[C@H]2N(CC3CCN(C)CC3)C(=O)O[C@]12C` [Compound 13L, (3aS,4R,7R,9R,10R,11R,13R,15R,15aR)-10-{[(2S,3R,4S,6R)-4-(dimethylamino)-3-hydroxy-6-methyloxan-2-yl]oxy}-4-ethyl-3a,7,9,11,13,15-hexamethyl-1-[(1-methylpiperidin-4-yl)methyl]-11-{[(2E)-3-(quinolin-3-yl)prop-2-en-1-yl]oxy}-tetradecahydro-1H-oxacyclotetradeca[4,3-d][1,3]oxazole-2,6,8,14-tetrone], the “MIC Strep. Pneumoniae AUCC 479 penS, macS” value in data set [1] amounted to 0.03 µg/mL (≈ 0.0342 µM). Further, the “MIC Strep. Pneumoniae AUCC 488 penR” value in data set [2] fell in the range of 0.5 to 1 µg/mL. For the same molecule, in data set [3], the “MIC Strep. Pneumoniae AUCC 483 penS, macR cMLS” value was 0.5 to 1 µg/mL. Moreover, the “MIC Strep. Pneumoniae AUCC 489 penR, macR cMLS” value in data set [4] is 0.5 to 1 µg/mL. Besides, the IC50 in data set [6] (setting [7]) came out at 6.3 µM. Also, in data set [6], the “CYP3A4 inhibition in comparison” value is listed as “lower IC50 inhibition of CYP3A4 inhibition”. For the same molecule, the “MIC Strep. Pneumoniae ATCC49619 QC strain” value in data set [5] came out at 0.06 µg/mL (≈ 0.0684 µM).
As to `CCC1OC(=O)C(C)C(=O)C(C)C(OC2OC(C)CC(N(C)C)C2O)C(C)(OCC=Cc2cnc3ccccc3c2)CC(C)C(=O)C(C)C2N(CC3CCN(C)C3)C(=O)OC12C` [Compound 13N, (3aS,4R,7R,9R,10R,11R,13R,15R,15aR)-10-{[(2S,3R,4S,6R)-4-(dimethylamino)-3-hydroxy-6-methyloxan-2-yl]oxy}-4-ethyl-3a,7,9,11,13,15-hexamethyl-1-{[(3S)-1-methylpyrrolidin-3-yl]methyl}-11-{[(2E)-3-(quinolin-3-yl)prop-2-en-1-yl]oxy}-tetradecahydro-1H-oxacyclotetradeca[4,3-d][1,3]oxazole-2,6,8,14-tetrone], the “MIC Strep. Pneumoniae AUCC 479 penS, macS” value in data set [1] stood at 0.03 µg/mL (≈ 0.0348 µM). The “MIC Strep. Pneumoniae AUCC 488 penR” value in data set [2] fell in the range of 0.5 to 1 µg/mL. For the same molecule, in data set [3], the “MIC Strep. Pneumoniae AUCC 483 penS, macR cMLS” value was 0.5 to 1 µg/mL. Further, the “MIC Strep. Pneumoniae AUCC 489 penR, macR cMLS” value in data set [4] fell in the range of 0.5 to 1 µg/mL. In data set [6] (setting [8]), the IC50 is 7.7 µM. Besides, the “CYP3A4 inhibition in comparison” value in data set [6] was “lower IC50 inhibition of CYP3A4 inhibition”. In data set [5], the “MIC Strep. Pneumoniae ATCC49619 QC strain” value lay within 0.03 to 0.06 µg/mL.
For the molecule `CC[C@H]1OC(=O)[C@H](C)[C@@H](O[C@H]2C[C@@](C)(OC)[C@@H](O)[C@H](C)O2)[C@H](C)[C@@H](O[C@@H]2O[C@H](C)C[C@H](N(C)C)[C@H]2O)[C@](C)(O)C[C@@H](C)C(=O)[C@H](C)[C@@H](O)[C@]1(C)O` [erythromycin, reference compound], the “MIC Strep. Pneumoniae AUCC 479 penS, macS” value in data set [1] lay within 0.03 to 0.06 µg/mL. For the same molecule, the “MIC Strep. Pneumoniae AUCC 488 penR” value in data set [2] lay in the range of 8 to 16 µg/mL. The “MIC Strep. Pneumoniae AUCC 483 penS, macR cMLS” value in data set [3] turned out to be 64 µg/mL (≈ 87.2 µM). Further, the “MIC Strep. Pneumoniae AUCC 489 penR, macR cMLS” value in data set [4] fell in the range of 8 to 32 µg/mL. Besides, in data set [5] (Streptococcus pneumoniae, ATCC49619 QC strain, read-out: MIC Strep. Pneumoniae ATCC49619 QC strain), the MIC was 0.03 to 0.06 µg/mL (≈ 0.0409 to 0.0818 µM).
Regarding “(3aS,4R,7R,9R,10R,11R,13R,15R,15aR)-1-[2-(diethylamino)ethyl]-10{[(2S,3R,4S,6R)-4-(dimethylamino)-3-hydroxy-6-methyloxan-2-yl]oxy}-4-ethyl-3a,7,9,11,13,15-hexamethyl-11-{[(2E)-3-(quinolin-3-yl)prop-2-en-1-yl]oxy}-tetradecahydro-1H-oxacyclotetradeca[4,3-d][1,3]oxazole-2,6,8,14-tetrone [Compound 13A]”, the “MIC Strep. Pneumoniae AUCC 479 penS, macS” value in data set [1] was 0.008 to 0.015 µg/mL. Moreover, in data set [2], the “MIC Strep. Pneumoniae AUCC 488 penR” value was 0.12 to 0.25 µg/mL. Besides, the “MIC Strep. Pneumoniae AUCC 483 penS, macR cMLS” value in data set [3] was in the range of 0.12 to 0.25 µg/mL. Further, the “MIC Strep. Pneumoniae AUCC 489 penR, macR cMLS” value in data set [4] is 0.12 to 0.25 µg/mL. Further, in data set [6] (setting [7]), the IC50 worked out at 1.2 µM. The “CYP3A4 inhibition in comparison” value in data set [6] is reported as “lower IC50 inhibition of CYP3A4 inhibition”. In addition, the “MIC Strep. Pneumoniae ATCC49619 QC strain” value in data set [5] fell in the range of 0.015 to 0.06 µg/mL.
As for “(3aS,4R,7R,9R,10R,11R,13R,15R,15aR)-1-[3-(azetidin-1-yl)propyl]-10-{[(2S,3R,4S,6R)-4-(dimethylamino)-3-hydroxy-6-methyloxan-2-yl]oxy}-4-ethyl-3a,7,9,11,13,15-hexamethyl-11-{[(2E)-3-(quinolin-3-yl)prop-2-en-1-yl]oxy}-tetradecahydro-1H-oxacyclotetradeca[4,3-d][1,3]oxazole-2,6,8,14-tetrone [Compound 13M]”, the “MIC Strep. Pneumoniae AUCC 479 penS, macS” value in data set [1] lay within 0.015 to 0.03 µg/mL. In data set [2], the “MIC Strep. Pneumoniae AUCC 488 penR” value was in the range of 0.5 to 1 µg/mL. The “MIC Strep. Pneumoniae AUCC 483 penS, macR cMLS” value in data set [3] fell in the range of 0.25 to 0.5 µg/mL. In data set [4], the “MIC Strep. Pneumoniae AUCC 489 penR, macR cMLS” value was in the range of 0.25 to 0.5 µg/mL. Besides, the IC50 in data set [6] (setting [8]) amounted to 10.3 µM. Moreover, the “CYP3A4 inhibition in comparison” value in data set [6] was “lower IC50 inhibition of CYP3A4 inhibition”. Moreover, the “MIC Strep. Pneumoniae ATCC49619 QC strain” value in data set [5] lay in the range of 0.03 to 0.06 µg/mL.

(Values after patent publication US10717757B2, “Ketolides having antibacterial activity” (BIOPHARMATI SA, priority 2016, dated 2020).)
